Earlier results as cited in US20110152382A1, “Composition of molecular elements for phosphorylase kinase inhibition” (priority 2009, published 2011).

How the values were obtained:
[1] = tested on: phosphorylase kinase; details: previously reported by the inventor
[2] = tested on: phosphorylase kinase

Row | Molecule | phosphorylase kinase activity in psoriatic skin [1] | anti-phosphorylase kinase activity [2]
1 | COc1cc(/C=C/C(=O)CC(=O)/C=C/c2ccc(O)c(OC)c2)ccc1O [curcumin, diferuloylmethane] | suppression of phosphorylase kinase activity | selective phosphorylase kinase inhibitor
2 | curcumin glucuronate | – | do not have anti-phosphorylase kinase activity
